Legend:
[1] = test system: HBV viral production in AD38 cells; experiment: Viral load production in AD38 cells by quantitative PCR of the HBV core sequence in supernatant; type: cell-based; conditions: Hepatitis B virus, 144 h; 10 μM compound, 6 days at 37° C., viral load in supernatant compared against DMSO control wells; read-out: AD38 Viral Load (CpAM/DMSO %) at 10 μM
Method: (§1) Example 56: Assay Measuring Activity of Compounds on Viral Production in and on Viability of AD38 Cells
(§2) AD38 cells were then re-suspended with 10 mL of Treatment Medium and counted. Wells of a collagen coated 96-well NUNC microtiter plate were seeded at 50,000/well in 180 μL of Treatment Medium, and 20 μL of in treatment media with either 10% DMSO (Control) or a 10× solution of compound in 10% DMSO was added. Plates were incubated for 6 days at 37° C.
Viral load production was assayed by quantitative PCR of the core sequence. Briefly, 5 μL of clarified supematant was added to a PCR reaction mixture that contained forward primers HBV-f 5′-CTGTGCCTTGGGTGGCTTT-3′, Reverse primers HBV-r 5′-[…]-3′ and Fluorescent TaqMan™ Probes HBV-probe 5′-FAM/AGCTCCAAA/ZEN/[…]/3IABkFQ-3′ in Quanta Biosciences PerfeCTa® qPCR Toughmix®, and was subsequently on an Applied Biosystems VIIA7 in a final volume of 20 μL. The PCR mixture was incubated at 45° C. for 5 minutes, then 95° C. for 10 min, followed by 40 cycles of 10 seconds at 95° C. and 20 seconds at 60° C. Viral load was quantitated against known standards by using ViiA™ 7 Software. Viral load in the supematant from wells with treated cells were compared against viral load in supernatant from DMSO control wells (≥3 per plate).

AD38 cells = experiment: Viability of AD38 cells (Promega CellTiter-Glo) at the end of compound treatment; type: cell-based; conditions: 10 μM compound, 6 days, luminescence normalized against DMSO control wells (controls being 100%)
Method: as §1, §2
At the end of compound treatment period cell viability was assessed using a Promega CellTiter-Glo protocol. All supernatant was removed the previously treated 96-well microtiter plate, and 50 μL Tetracycline-free treatment medium (DMEM/F12 (1:1), lx Pen/step (cat#: 30-002-CL, Mediatech, Inc), with 2% FBS, Tet-system approved (cat#: 631106, Clontech), and 1% DMSO was added back to each well. Another 50 μL of CellTiter-Glo reagent solution (Promega, G7573) was then added at room temperature and the contents mixed for 2 minutes on an orbital shaker to induce cell lysis. This was followed by incubation at room temperature for 10 minutes to stabilize the luminescent signal. The luminescence was recorded for 0.2 seconds per well on a Tecan multimode platereader (Infinite M1000 pro). The luminescent signal from each well was normalized against that of untreated (DMSO) control wells. All results were reported percent viability (with controls being 100%).

Structure (SMILES)	activity at 10 µM [1] [%]	AD38 Viability Normalized Result (CPAM/DMSO %) at 10 μM (AD38 cells) [%]
O=C(NC[C@@H](CO)c1ccccc1)c1ccc2c(c1)NC(=O)c1ccccc1S2 [Compound 1259]	11	84
CN(C)C(=O)c1ccc2c(c1)Sc1ccc(C(=O)NCCc3ccccc3)cc1NC2=O [Compound 1281, N^3,N^3-dimethyl-11-oxo-N^8-phenethyl-10, 11-dihydrodibenzo [b,f] [1,4] thiazepine-3,8-dicarboxamide]	29	86
O=C(NCCc1ccc(-n2nccn2)cc1)c1ccc2c(c1)NC(=O)c1ccccc1S2(=O)=O [Compound 1626]	0	118
COC(=O)c1ccc(-c2cccc(NC(=O)c3ccc4c(c3)NC(=O)c3cc(F)ccc3S4)c2)cc1 [Compound 1420, Methyl 3′-(2-fluoro-11-oxo-10, 11-dihydrodibenzo [b,f] [1,4]thiazepine-8-carboxamido)-[1,1′-biphenyl]-4-carboxylate]	29	86
Nc1ncc(CNC(=O)c2ccc3c(c2)NC(=O)c2ccccc2S3)s1 [Compound 1613]	0	122
O=C(NCCc1cccnc1)c1cc2c(cc1F)Sc1ccccc1C(=O)N2 [Compound 1395]	64	79
O=C(NCCc1ccccc1)Nc1ccc2c(c1)NC(=O)c1ccccc1S2 [Compound 1224, 1-(11-oxo-10, 11-dihydrodibenzo [b,f] [1,4]thiazepin-8-yl)-3-phenethylurea]	3	65
O=C1Nc2cc(S(=O)(=O)N3CCC(O)CC3)ccc2Sc2ccccc21 [Compound 1431]	115	92
O=C(NCc1cccnc1)c1ccc2c(c1)NC(=O)c1c(F)cccc1S2 [Compound 1490]	7	79
O=C(Nc1ccc(Cl)cn1)c1ccc2c(c1)NC(=O)c1cc(F)ccc1S2 [Compound 1338]	70	118
O=C(NCc1cccnc1)c1ccc2c(c1)NC(=O)c1ccc(F)cc1S2 [Compound 1365]	2	105
CN1c2ccc(C(=O)NCCc3ccc(-c4ccccc4)cc3)cc2NC(=O)c2ccccc21 [Compound 1521]	1	22
CN1c2ccc(C(=O)NCc3cncnc3)cc2NC(=O)c2ccccc21 [Compound 1520]	1	81
O=C(NCCN1CCOCC1)c1ccc2c(c1)NC(=O)c1ccccc1S2 [Compound 1175]	30	123
O=C(NCCc1ccccn1)c1ccc2c(c1)NC(=O)c1ccc(F)cc1S2 [Compound 1348]	0	107
O=C(Nc1ccncc1)c1cc2c(cc1F)Sc1ccccc1C(=O)N2 [Compound 1508]	31	81
O=C(Nc1ccncc1)c1ccc2c(c1)NC(=O)c1ccccc1[S+]2[O-] (stereo not drawn) [Compound 1382]	47	117
Cl.O=C(NCC1CCNC1)c1ccc2c(c1)NC(=O)c1ccccc1S2 (stereo not drawn) [Compound 1608, 11-oxo-N-(pyrrolidin-3-ylmethyl)-10, 11-dihydrodibenz[b,f] [1,4] thiazepine-8-carboxamide hydrochloride]	63	103
CCCCCCNC(=O)c1ccc2c(c1)NC(=O)c1ccccc1S2 [Compound 1151]	1	50
O=C(Nc1nc2ccc(Cl)cc2s1)c1ccc2c(c1)NC(=O)c1cc(F)ccc1S2 [Compound 1340]	64	116
Cc1ccccc1CNC(=O)c1ccc2c(c1)NC(=O)c1ccccc1S2 [Compound 1187]	1	73
O=C(NCc1cncnc1)c1ccc2c(c1)NC(=O)c1c(F)cccc1S2 [Compound 1540]	12	87
O=C(Nc1nc2ccc(F)cc2s1)c1ccc2c(c1)NC(=O)c1cc(F)ccc1S2 [Compound 1332]	70	103

Structure (SMILES)	activity at 10 µM [1] [%]	AD38 Viability Normalized Result (CPAM/DMSO %) at 10 μM (AD38 cells) [%]
O=C(Nc1nc2ccc(F)cc2s1)c1ccc2c(c1)NC(=O)c1ccccc1S2(=O)=O [Compound 1637]	32	123
Cc1nnc(CCNC(=O)c2ccc3c(c2)NC(=O)c2ccccc2S3)s1 [Compound 1567]	1	109
Cc1ccccc1CCNC(=O)c1ccc2c(c1)NC(=O)c1ccccc1S2 [Compound 1158]	37	120
CCC(CNC(=O)c1ccc2c(c1)NC(=O)c1ccccc1S2)c1ccccc1 (stereo not drawn) [Compound 1176]	2	104
O=C(NCC1CCC1)c1ccc2c(c1)NC(=O)c1ccccc1S2 [Compound 1174]	35	109
O=C(NC[C@H](CO)c1ccccc1)c1ccc2c(c1)NC(=O)c1ccccc1S2 [Compound 1258]	12	105
Cc1c(C(=O)NCCc2ccc(S(=O)(=O)N(C)C)cc2)ccc2c1NC(=O)c1ccccc1S2 [Compound 1517]	2	78
O=C(NCc1cccc(F)c1)c1ccc2c(c1)NC(=O)c1ccccc1S2 [Compound 1168]	10	117
O=C(NCCc1ccc(-c2ccccc2)cc1)c1ccc2c(c1)NC(=O)c1cccc(F)c1S2 [Compound 1466]	7	88
O=C(NCCc1ccc(-c2ccccc2)cc1)c1ccc2c(c1)NC(=O)c1ccccc1S2(=O)=O [Compound 1618]	0	44
O=C1Nc2c(cc(F)c(C(=O)NCc3cncnc3)c2F)Sc2ccccc21 [Compound 1518]	67	85
O=C(NCCc1cnco1)c1ccc2c(c1)NC(=O)c1ccccc1[S+]2[O-] (stereo not drawn) [Compound 1485]	30	96
O=C(NCc1cncnc1)c1cc2c(cc1F)Sc1ccccc1C(=O)N2 [Compound 1428]	28	93
O=C(NCc1cnco1)c1ccc2c(c1)NC(=O)c1ccccc1S2(=O)=O [Compound 1456]	15	101
O=C(NCc1ccccc1)c1ccc2c(c1)NC(=O)c1ccccc1S2(=O)=O [Compound 1620]	3	111
O=C1Nc2c(cc(F)c(C(=O)NCCc3ccc(-c4ccccc4)cc3)c2F)Sc2ccccc21 [Compound 1497]	9	49
O=C(NCc1cncs1)c1cc2c(cc1F)Sc1ccccc1C(=O)N2 [Compound 1429]	38	90
O=C(NCCc1cnc(-c2ccccc2)nc1)c1ccc2c(c1)NC(=O)c1cc(F)ccc1S2 [Compound 1343]	8	91
O=C(NCCC1CCCCC1)c1ccc2c(c1)NC(=O)c1ccc(F)cc1S2 [Compound 1234]	3	79
O=C(Nc1cccc(F)c1)c1ccc2c(c1)NC(=O)c1cc(F)ccc1S2 [Compound 1317]	50	95
NC(=O)c1ccc2c(c1)NC(=O)c1ccccc1S2 [Compound 1525]	78	85
O=C(NCc1cccnc1)c1cc2c(cc1F)Sc1ccccc1C(=O)N2 [Compound 1396]	63	95

Source: patent US10183936B2, “Hepatitis B core protein allosteric modulators” (priority 2014, dated 2019)
